Assay results reported in patent US20230302164A1, “PSMA-Targeting Ligands With Optimal Properties for Imaging and Therapy” (Wisconsin Alumni Research Foundation, priority 2021, published 2023).
Read-outs that look alike come from different tables or passages of the source.

Columns and labels:
[1] = PET/CT imaging in normal ICR mice, blood kinetics by region of interest analysis of the heart; assay type: in vivo; details: i.v., PET days 0-2
Experimental: Compounds PSMA-C12 and PSMA-PhC18 were dissolved in water at a concentration of 1-2 mg/mL. Radiolabeling with Y-86 was carried out in NaOAc buffer (pH 5.0) at 90-95 C for 30 min to 1 h at constant stirring. Ten micrograms of compound per mCi of ^86Y were employed, affording quantitative radiochemical yields. Purification of the compounds was carried out using reverse-phase solid-phase chromatography and purified compounds were redissolved in physiological injection media (e.g., normal saline). Quality control was conducted using reverse-phase HPLC.
In PET/CT imaging studies, 100-250 µCi of ^86Y-PSMA-C12 and ^86Y-PSMA-PhC18 were intravenously administered into normal ICR mice, and mice were scanned on days 0, 1, and 2 after injection. The results are shown in FIG. 1 (for ^86Y-PSMA-C12) and in FIG. 2 (for ^86Y-PSMA-PhC18). Blood circulation kinetics were analyzed through a region of interest analysis of the heart.
To our knowledge, ^86Y-PSMA-PhC18 is the only PSMA inhibitor showing long circulation without albumin binding, and that has predominantly hepatic excretion. These features have clear advantages over other previously known PSMA ligands for prostate cancer theranostics.

[2] = molecular target: T1, PSMA (LNCap cells, PSMA positive) (Homo sapiens, UniProt Q04609); experiment: Competitive binding assay in LNCap cells using 86Y as a radioligand; details: 86Y radioligand, read-out: half inhibition concentration (IC50)
T1 construct: endogenous in cells; host or cells: LNCap cells (human prostate adenocarcinoma)
Experimental: Competitive binding assays were performed in LNCap cells (PSMA positive, androgen-sensitive human prostate adenocarcinoma cells) using ^86Y as a radioligand.

[3] = test system: PC3-PIP tumor xenografts; experiment: Ex vivo biodistribution in PC3-PIP mice after last imaging timepoint; details: 24 h p.i. (617, C12) or 72 h p.i. (PhC18)
Experimental: Next, an ex vivo biodistribution analysis was performed following the last imaging timepoint at 24 h p.i. for PC3-PIP mice injected intravenously with ^86Y-PSMA-617 and ^86Y-PSMA-C12 and at 72 h p.i. in mice administered ^86Y-PSMA-PhC18.

[4] = test system: LNCap tumor xenografts with lower PSMA expression; experiment: PET/CT imaging and region of interest analysis in nude mice bearing LNCap tumor xenografts; assay type: in vivo
Experimental: Next, PET/CT imaging studies were performed in nude mice bearing LNCap tumor xenografts with lower PSMA expression. The mice were injected intravenously with ^86Y-PSMA-617, ^86Y-PSMA-C12, or ^86Y-PSMA-PhC18 and scanned up to 72 h p.i. […] Finally, a region of interest analysis was then performed on the PET/CT images in nude mice bearing LNCap tumor xenografts injected intravenously with ^86Y-PSMA-617, ^86Y-PSMA-C12, or ^86Y-PSMA-PhC18 and scanned up to 72 h post injection.

[5] = test system: PC3-PIP tumor xenografts; experiment: PET/CT imaging and region of interest analysis in nude mice bearing PC3-PIP tumor xenografts; assay type: in vivo
Experimental: Next, PET/CT imaging studies were performed in nude mice bearing PC3-PIP tumor xenografts ([…] tumors) injected intravenously with ^86Y-PSMA-617, ^86Y-PSMA-C12, or ^86Y-PSMA-PhC18 and scanned up to 72 h post injection.
A region of interest analysis was then performed on the PC3-PIP tumor xenografts injected intravenously with ^86Y-PSMA-617, ^86Y-PSMA-C12, or ^86Y-PSMA-PhC18 and scanned up to 72 h post injection.

[6] = Partition (logP) and distribution (logD) coefficients, hydrophobicity comparison; assay type: physicochemical; details: for LogD: distribution coefficient; for LogD / LogP: 177Lu-labeled compound; for LogP: partition coefficient
[7] = nude mice, i.v., scanned up to 72 h
[8] = nude mice, region of interest analysis

T1 sequence (Q04609 whole entry): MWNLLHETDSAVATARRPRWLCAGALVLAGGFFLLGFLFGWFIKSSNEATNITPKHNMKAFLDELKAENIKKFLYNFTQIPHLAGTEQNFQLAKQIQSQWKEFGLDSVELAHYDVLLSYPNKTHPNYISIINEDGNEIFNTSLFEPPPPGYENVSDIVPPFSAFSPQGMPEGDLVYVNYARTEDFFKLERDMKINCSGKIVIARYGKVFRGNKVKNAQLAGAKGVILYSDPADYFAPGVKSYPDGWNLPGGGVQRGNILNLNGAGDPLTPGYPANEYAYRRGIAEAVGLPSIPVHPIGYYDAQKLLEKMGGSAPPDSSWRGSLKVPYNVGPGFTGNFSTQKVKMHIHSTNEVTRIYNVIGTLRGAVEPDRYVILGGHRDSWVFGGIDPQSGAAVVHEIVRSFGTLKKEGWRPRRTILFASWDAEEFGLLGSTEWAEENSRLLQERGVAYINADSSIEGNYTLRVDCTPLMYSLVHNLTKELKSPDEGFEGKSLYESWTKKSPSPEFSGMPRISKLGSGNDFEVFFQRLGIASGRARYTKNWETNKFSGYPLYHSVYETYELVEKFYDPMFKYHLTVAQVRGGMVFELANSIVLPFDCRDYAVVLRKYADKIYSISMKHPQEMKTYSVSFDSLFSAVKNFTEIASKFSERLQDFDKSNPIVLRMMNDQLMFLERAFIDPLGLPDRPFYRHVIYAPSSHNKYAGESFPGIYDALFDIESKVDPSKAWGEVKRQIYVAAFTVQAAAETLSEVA

O=C(O)CCC(NC(=O)NC(CCCCNC(=O)CCCCCCCCCCCNC(=O)CN1CCN(CC(=O)O)CCN(CC(=O)O)CCN(CC(=O)O)CC1)C(=O)O)C(=O)O (stereo not drawn) [^86Y-PSMA-C12, metal not drawn]
blood circulation [1]: short circulation half-life | excretion route [1]: renal excretion | IC50 [2]: 58.2 nM | tissue with highest uptake in ex vivo biodistribution [3]: the tumor shows the highest uptake of all analysed tissues

O=C(O)CCC(NC(=O)NC(CCCCNC(=O)CCCCCCCCCCCCCCCCCc1ccc(NC(=O)CN2CCN(CC(=O)O)CCN(CC(=O)O)CCN(CC(=O)O)CC2)cc1)C(=O)O)C(=O)O (stereo not drawn) [^86Y-PSMA-PhC18, metal not drawn]
clearance from normal organs ([4]; nude mice): Steady clearance from normal organs | tumor uptake and retention versus 86Y-PSMA-617 ([4]; nude mice, PET/CT): significantly improved | blood circulation [4, 7]: prolonged blood circulation | renal clearance [4, 7]: minimal renal clearance | blood circulation half-life [4, 8]: 15.1 h | time at which tumor uptake plateaued ([4]; p.i.): 24 h | tumor uptake at 72 h p.i. relative to 86Y-PSMA-617 and 86Y-PSMA-C12 at 24 h p.i. ([4]; region of interest analysis): five times higher | tumor uptake and retention versus 86Y-PSMA-617 and 86Y-PSMA-C12 ([5]; nude mice, i.v., PET/CT): significantly improved | blood circulation [5, 7]: prolonged blood circulation | renal clearance [5, 7]: minimal renal clearance | blood circulation half-life [5, 8]: 11.7 h | blood circulation half-life (unit not given) ([5]; nude mice, region of interest analysis, FIG. 5 legend): 11.7 h | time at which tumor uptake plateaus ([5]; post injection): 24 h | blood circulation [1]: prolonged circulation | excretion route [1]: hepatobiliary excretion | tissue with highest uptake in ex vivo biodistribution [3]: the tumor shows the highest uptake of all analysed tissues

O=C([O-])CN1CCN(CC(=O)[O-])CCN(CC(=O)NCC2CCC(C(=O)N[C@@H](Cc3ccc4ccccc4c3)C(=O)NCCCC[C@H](NC(=O)N[C@@H](CCC(=O)O)C(=O)O)C(=O)O)CC2)CCN(CC(=O)[O-])CC1.[177Lu+3] (stereo partly drawn) [^177Lu-PSMA-617, reference compound]
LogD [6]: -3.2 | LogP [6]: -2.8

O=C(O)CCC(NC(=O)NC(CCCCNC(=O)CCCCCCCCCCCNC(=O)CN1CCN(CC(=O)O)CCN(CC(=O)O)CCN(CC(=O)O)CC1)C(=O)O)C(=O)O (stereo not drawn) [^177Lu-PSMA-C12, metal not drawn]
LogD ([6]; read-out: LogD): -2.9 | LogP ([6]; read-out: LogP): -2.6

O=C(O)CCC(NC(=O)NC(CCCCNC(=O)CCCCCCCCCCCCCCCCCc1ccc(NC(=O)CN2CCN(CC(=O)O)CCN(CC(=O)O)CCN(CC(=O)O)CC2)cc1)C(=O)O)C(=O)O (stereo not drawn) [^177Lu-PSMA-PhC18, metal not drawn]
hydrophobicity comparison ([6]; 177Lu-labeled compounds compared with each other): two orders of magnitude more hydrophobic | LogD [6]: -1.2 | LogP [6]: -0.8
